In this assay the target is GABAA receptor (TBPS binding site), rat brain cortical membranes. The assay is described as follows: [35S]-TBPS binding assay, rat brain cortical membranes in the presence of 5 mM GABA. The settings on record: inhibition of 3 nM [35S]-TBPS binding. The procedure: [^35S]-t-Butylbicyclophosphorothionate (TBPS) binding assays using rat brain cortical membranes in the presence of 5 mM GABA has been described (Gee et al, J. Pharmacol. Exp. Ther. 1987, 241, 346-353; Hawkinson et al, Mol. Pharmacol. 1994, 46, 977-985; Lewin, A. H et al., Mol. Pharmacol. 1989, 35, 189-194).
Briefly, cortices are rapidly removed following decapitation of carbon dioxide-anesthetized Sprague-Dawley rats (200-250 g). The cortices are homogenized in 10 volumes of ice-cold 0.32 M sucrose using a glass/teflon homogenizer and centrifuged at 1500×g for 10 min at 4° C. The resultant supernatants are centrifuged at 10,000×g for 20 min at 4° C. to obtain the P2 pellets. The P2 pellets are resuspended in 200 mM NaCl/50 mM Na—K phosphate pH 7.4 buffer and centrifuged at 10,000×g for 10 min at 4° C. This washing procedure is repeated twice and the pellets are resuspended in 10 volumes of buffer. Aliquots ([…]) of the membrane suspensions are incubated with 3 nM [^35S]-TBPS and […] aliquots of test drug dissolved in dimethyl sulfoxide (DMSO) (final 0.5%) in the presence of 5 mM GABA. The incubation is brought to a final volume of 1.0 mL with buffer. Nonspecific binding is determined in the presence of […] and ranged from 15 to 25%. Following a 90 min incubation at room temp, the assays are terminated by filtration through glass fiber filters (Schleicher and Schuell No. 32) using a cell harvester (Brandel) and rinsed three times with ice-cold buffer. Filter bound radioactivity is measured by liquid scintillation spectrometry. Non-linear curve fitting of the overall data for each drug averaged for each concentration is done using Prism (GraphPad). […] The concentration of test compound producing 50% inhibition (IC50) of specific binding and the maximal extent of inhibition (Imax) are determined for the individual experiments with the same model used for the overall data and then the means±SEM.s of the individual experiments are calculated.
Various compounds are or can be screened to determine their potential as modulators of [^35S]-TBPS binding in vitro. These assays are or can be performed in accordance with the above
Turning to `CCOC[C@@]1(O)CC[C@H]2[C@H](CC[C@@H]3[C@@H]2CC[C@]2(C)[C@@H](C(=O)Nc4cccc(N5CCCC5=O)n4)CC[C@@H]32)C1` [Example 64], the IC50 is below 100 nM. With `CCOC[C@@]1(O)CC[C@H]2[C@H](CC[C@@H]3[C@@H]2CC[C@]2(C)[C@@H](C(=O)Nc4cc(C#N)nn4C)CC[C@@H]32)C1` [Example 37] the figure was below 100 nM; with `CCOC[C@@]1(O)CC[C@H]2[C@H](CC[C@@H]3[C@@H]2CC[C@]2(C)[C@@H](C(=O)Nc4cccc(C)n4)CC[C@@H]32)C1` [Example 4, (3R,5R,8R,9R,10S,13S,14S,17S)-3-(ethoxymethyl)-3-hydroxy-13-methyl-N-(6-methylpyridin-2-yl)hexadecahydro-1H-cyclopenta[a]phenanthrene-17-carboxamide], below 100 nM; with `COC[C@@]1(O)CC[C@H]2[C@H](CC[C@@H]3[C@@H]2CC[C@]2(C)[C@@H](C(=O)Nc4ccc(-n5ccc(C)n5)nc4C)CC[C@@H]32)C1` [Example 52], below 100 nM.

The IC50 is the midpoint of a concentration-inhibition curve.
